Measured values from ChEMBL document CHEMBL4665836, “Overcoming β-Lactam resistance in Pseudomonas aeruginosa using non-canonical tobramycin-based antibiotic adjuvants” (2020).

Experiments:
Type in all cases: functional
Pseudomonas aeruginosa [1] = assay: Potentiation of imipenem-induced antibacterial activity against carbapenem-resistant Pseudomonas aeruginosa 109084 clinical isolate assessed as fold reduction in imipenem MIC at 8 uM in presence of beta-lactamase inhibitor, rele-bactam
Pseudomonas aeruginosa [2] = assay: Potentiation of aztreonam-induced antibacterial activity against carbapenem-resistant Pseudomonas aeruginosa 108590 clinical isolate assessed as fold reduction in aztreonam MIC at 8 uM in presence of beta-lactamase inhibitor, avi-bactam
Pseudomonas aeruginosa [3] = assay: Potentiation of ceftazidime-induced antibacterial activity against carbapenem-resistant Pseudomonas aeruginosa 88949 clinical isolate assessed as fold reduction in ceftazidime MIC at 8 uM in presence of beta-lactamase inhibitor, avi-bactam
Pseudomonas aeruginosa [4] = assay: Potentiation of ceftazidime-induced antibacterial activity against carbapenem-resistant Pseudomonas aeruginosa 108590 clinical isolate assessed as fold reduction in ceftazidime MIC at 8 uM in presence of beta-lactamase inhibitor, avi-bactam
Pseudomonas aeruginosa [5] = assay: Potentiation of imipenem-induced antibacterial activity against carbapenem-resistant Pseudomonas aeruginosa PAO750 harboring mexAB-oprM/mexCD-oprJ/mexEF-oprN/mexJK/mexXY/opmH efflux deficient mutant assessed as imipenem MIC at 8 uM by checkerboard assay (reference value: 4 ug/ml)
Pseudomonas aeruginosa [6] = assay: Potentiation of imipenem-induced antibacterial activity against carbapenem-resistant Pseudomonas aeruginosa PAO200 harboring mexAB-oprM efflux deficient mutant assessed as imipenem MIC at 8 uM by checkerboard assay (reference value: 4 ug/ml)
Pseudomonas aeruginosa [7] = assay: Potentiation of imipenem-induced antibacterial activity against carbapenem-resistant Pseudomonas aeruginosa 107092 clinical isolate assessed as imipenem MIC at 8 uM by checkerboard assay (reference value: 64 ug/ml)
Pseudomonas aeruginosa [8] = assay: Potentiation of imipenem-induced antibacterial activity against carbapenem-resistant Pseudomonas aeruginosa 88949 clinical isolate assessed as imipenem MIC at 8 uM by checkerboard assay (reference value: 64 ug/ml)
Pseudomonas aeruginosa [9] = assay: Potentiation of imipenem-induced antibacterial activity against carbapenem-resistant Pseudomonas aeruginosa 86052 clinical isolate assessed as imipenem MIC at 8 uM by checkerboard assay (reference value: 32 ug/ml)
Pseudomonas aeruginosa [10] = assay: Potentiation of imipenem-induced antibacterial activity against carbapenem-resistant Pseudomonas aeruginosa 264-104354 clinical isolate assessed as imipenem MIC at 8 uM by checkerboard assay (reference value: 16 ug/ml)
Pseudomonas aeruginosa [11] = assay: Potentiation of imipenem-induced antibacterial activity against carbapenem-resistant Pseudomonas aeruginosa 262-101856 clinical isolate assessed as imipenem MIC at 8 uM by checkerboard assay (reference value: 32 ug/ml)
Pseudomonas aeruginosa [12] = assay: Potentiation of imipenem-induced antibacterial activity against carbapenem-resistant Pseudomonas aeruginosa 260-97103 clinical isolate assessed as imipenem MIC at 8 uM by checkerboard assay (reference value: 16 ug/ml)
Pseudomonas aeruginosa [13] = assay: Potentiation of imipenem-induced antibacterial activity against wild-type Pseudomonas aeruginosa PAO1 assessed as imipenem MIC at 8 uM by checkerboard assay (reference value: 4 ug/ml)
Pseudomonas aeruginosa [14] = assay: Potentiation of ceftazidime-induced antibacterial activity against carbapenem-resistant Pseudomonas aeruginosa PAO750 harboring and mexAB-oprM/mexCD-oprJ/mexEF-oprN/mexJK/mexXY/opmH efflux deficient mutant assessed as ceftazidime MIC at 8 uM by checkerboard assay (reference value: 0.5 ug/ml)
Pseudomonas aeruginosa [15] = assay: Potentiation of ceftazidime-induced antibacterial activity against carbapenem-resistant Pseudomonas aeruginosa 108590 clinical isolate assessed as ceftazidime MIC at 8 uM by checkerboard assay (reference value: 32 ug/ml)
Pseudomonas aeruginosa [16] = assay: Potentiation of ceftazidime-induced antibacterial activity against carbapenem-resistant Pseudomonas aeruginosa 107092 clinical isolate assessed as ceftazidime MIC at 8 uM by checkerboard assay (reference value: 128 ug/ml)
Pseudomonas aeruginosa [17] = assay: Potentiation of ceftazidime-induced antibacterial activity against carbapenem-resistant Pseudomonas aeruginosa 86052 clinical isolate assessed as ceftazidime MIC at 8 uM by checkerboard assay (reference value: 64 ug/ml)
Pseudomonas aeruginosa [18] = assay: Potentiation of ceftazidime-induced antibacterial activity against carbapenem and colistin-resistant Pseudomonas aeruginosa 114228 clinical isolate assessed as ceftazidime MIC at 8 uM by checkerboard assay (reference value: 8 ug/ml)
Pseudomonas aeruginosa [19] = assay: Potentiation of ceftazidime-induced antibacterial activity against carbapenem and colistin-resistant Pseudomonas aeruginosa 101243 clinical isolate assessed as ceftazidime MIC at 8 uM by checkerboard assay (reference value: 64 ug/ml)
Pseudomonas aeruginosa [20] = assay: Potentiation of ceftazidime-induced antibacterial activity against carbapenem-resistant Pseudomonas aeruginosa 262-101856 clinical isolate assessed as ceftazidime MIC at 8 uM by checkerboard assay (reference value: 16 ug/ml)
Pseudomonas aeruginosa [21] = assay: Potentiation of ceftazidime-induced antibacterial activity against wild type Pseudomonas aeruginosa PAO1 assessed as ceftazidime MIC at 8 uM by checkerboard assay (reference value: 2 ug/ml)
Pseudomonas aeruginosa [22] = assay: Potentiation of aztreonam-induced antibacterial activity against carbapenem-resistant Pseudomonas aeruginosa PAO200 harboring mexAB-oprM efflux deficient mutant assessed as aztreonam MIC at 8 uM by checkerboard assay (reference value: 0.25 ug/ml)
Pseudomonas aeruginosa [23] = assay: Potentiation of aztreonam-induced antibacterial activity against carbapenem-resistant Pseudomonas aeruginosa 107092 clinical isolate assessed as aztreonam MIC at 8 uM by checkerboard assay (reference value: 64 ug/ml)
Pseudomonas aeruginosa [24] = assay: Potentiation of aztreonam-induced antibacterial activity against carbapenem and colistin-resistant Pseudomonas aeruginosa 114228 clinical isolate assessed as aztreonam MIC at 8 uM by checkerboard assay (reference value: 32 ug/ml)
Pseudomonas aeruginosa [25] = assay: Potentiation of aztreonam-induced antibacterial activity against carbapenem and colistin-resistant Pseudomonas aeruginosa 101243 clinical isolate assessed as aztreonam MIC at 8 uM by checkerboard assay (reference value: 32 ug/ml)
Pseudomonas aeruginosa [26] = assay: Potentiation of aztreonam-induced antibacterial activity against carbapenem-resistant Pseudomonas aeruginosa 100036 clinical isolate assessed as aztreonam MIC at 8 uM by checkerboard assay (reference value: 16 ug/ml)
Pseudomonas aeruginosa [27] = assay: Potentiation of aztreonam-induced antibacterial activity against carbapenem-resistant Pseudomonas aeruginosa 260-97103 clinical isolate assessed as aztreonam MIC at 8 uM by checkerboard assay (reference value: 64 ug/ml)
Pseudomonas aeruginosa [28] = assay: Potentiation of aztreonam-induced antibacterial activity against carbapenem-resistant Pseudomonas aeruginosa 259-96918 clinical isolate expressing metallo-beta-lactamase assessed as aztreonam MIC at 8 uM by checkerboard assay (reference value: 32 ug/ml)
Pseudomonas aeruginosa [29] = assay: Potentiation of aztreonam-induced antibacterial activity against wild type Pseudomonas aeruginosa PAO1 assessed as aztreonam MIC at 8 uM by checkerboard assay (reference value: 4 ug/ml)
Pseudomonas aeruginosa [30] = assay: Potentiation of ceftazidime-induced antibacterial activity against carbapenem-resistant Pseudomonas aeruginosa 259-96918 clinical isolate expressing metallo-beta-lactamase assessed as ceftazidime MIC at 8 uM by checkerboard assay (reference value: 512 ug/ml)
Pseudomonas aeruginosa [31] = assay: Potentiation of aztreonam-induced antibacterial activity against wild type Pseudomonas aeruginosa PAO1 assessed as fold reduction in aztreonam MIC at 8 uM
Pseudomonas aeruginosa [32] = assay: Potentiation of imipenem-induced antibacterial activity against wild type Pseudomonas aeruginosa PAO1 assessed as fold reduction in imipenem MIC at 8 uM

SMILES | fold change (FC) (Pseudomonas aeruginosa [1]) | fold change (FC) (Pseudomonas aeruginosa [2]) | fold change (FC) (Pseudomonas aeruginosa [3]) | fold change (FC) (Pseudomonas aeruginosa [4]) | MIC (Pseudomonas aeruginosa [5]) [µg/mL] | MIC (Pseudomonas aeruginosa [6]) [µg/mL] | MIC (Pseudomonas aeruginosa [7]) [µg/mL] | MIC (Pseudomonas aeruginosa [8]) [µg/mL] | MIC (Pseudomonas aeruginosa [9]) [µg/mL] | MIC (Pseudomonas aeruginosa [10]) [µg/mL] | MIC (Pseudomonas aeruginosa [11]) [µg/mL] | MIC (Pseudomonas aeruginosa [12]) [µg/mL] | MIC (Pseudomonas aeruginosa [13]) [µg/mL] | MIC (Pseudomonas aeruginosa [14]) [µg/mL] | MIC (Pseudomonas aeruginosa [15]) [µg/mL] | MIC (Pseudomonas aeruginosa [16]) [µg/mL] | MIC (Pseudomonas aeruginosa [17]) [µg/mL] | MIC (Pseudomonas aeruginosa [18]) [µg/mL] | MIC (Pseudomonas aeruginosa [19]) [µg/mL] | MIC (Pseudomonas aeruginosa [20]) [µg/mL] | also measured
N=C(N)NC[C@H]1O[C@H](O[C@H]2[C@H](OCCCCCCCCCCCCN3CCN(c4cc5c(cc4F)c(=O)c(C(=O)O)cn5C4CC4)CC3)[C@@H](O[C@H]3O[C@H](CO)[C@@H](O)[C@H](NC(=N)N)[C@H]3O)[C@H](NC(=N)N)C[C@@H]2NC(=N)N)[C@H](NC(=N)N)C[C@@H]1O.O=C(O)C(F)(F)F.O=C(O)C(F)(F)F.O=C(O)C(F)(F)F.O=C(O)C(F)(F)F.O=C(O)C(F)(F)F.O=C(O)C(F)(F)F | 16 | 16 | 16 | 16 | 1 | 2 | 32 | 64 | 16 | 16 | 16 | 8 | 1 | 0.25 | 2 | 32 | 32 | 2 | 16 | 16 | MIC (Pseudomonas aeruginosa [21]): 0.25 µg/mL; MIC (Pseudomonas aeruginosa [22]): 0.06 µg/mL; MIC (Pseudomonas aeruginosa [23]): 32 µg/mL; MIC (Pseudomonas aeruginosa [24]): 8 µg/mL; MIC (Pseudomonas aeruginosa [25]): 4 µg/mL; MIC (Pseudomonas aeruginosa [26]): 16 µg/mL; MIC (Pseudomonas aeruginosa [27]): 8 µg/mL; MIC (Pseudomonas aeruginosa [28]): 32 µg/mL; MIC (Pseudomonas aeruginosa [29]): 0.5 µg/mL; MIC (Pseudomonas aeruginosa [30]): 512 µg/mL; fold change (FC) (Pseudomonas aeruginosa [31]): 2; fold change (FC) (Pseudomonas aeruginosa [32]): 2
NC[C@H]1O[C@H](O[C@H]2[C@H](OCCCCc3cn(CCCCO[C@@H]4[C@@H](O)[C@H](N)C[C@H](N)[C@H]4O[C@H]4O[C@H](CN)[C@@H](O)C[C@H]4N)nn3)[C@@H](O)[C@H](N)C[C@@H]2N)[C@H](N)C[C@@H]1O.O=C(O)C(F)(F)F.O=C(O)C(F)(F)F.O=C(O)C(F)(F)F.O=C(O)C(F)(F)F.O=C(O)C(F)(F)F.O=C(O)C(F)(F)F.O=C(O)C(F)(F)F.O=C(O)C(F)(F)F | 16 | 16 | 16 | 16 | 2 | 1 | 32 | 32 | 16 | 8 | 4 | 16 | 2 | 0.13 | 32 | 128 | 64 | 1 | 32 | 16 | MIC (Pseudomonas aeruginosa [21]): 0.5 µg/mL; MIC (Pseudomonas aeruginosa [22]): 0.06 µg/mL; MIC (Pseudomonas aeruginosa [23]): 32 µg/mL; MIC (Pseudomonas aeruginosa [24]): 16 µg/mL; MIC (Pseudomonas aeruginosa [25]): 8 µg/mL; MIC (Pseudomonas aeruginosa [26]): 4 µg/mL; MIC (Pseudomonas aeruginosa [27]): 16 µg/mL; MIC (Pseudomonas aeruginosa [28]): 8 µg/mL; MIC (Pseudomonas aeruginosa [29]): 1 µg/mL; MIC (Pseudomonas aeruginosa [30]): 128 µg/mL; fold change (FC) (Pseudomonas aeruginosa [31]): 2; fold change (FC) (Pseudomonas aeruginosa [32]): 2
NC[C@H]1O[C@H](O[C@H]2[C@H](OCCCCCCCCN3CCCNCCNCCCNCC3)[C@@H](O)[C@H](N)C[C@@H]2N)[C@H](N)C[C@@H]1O.O=C(O)C(F)(F)F.O=C(O)C(F)(F)F.O=C(O)C(F)(F)F.O=C(O)C(F)(F)F.O=C(O)C(F)(F)F.O=C(O)C(F)(F)F.O=C(O)C(F)(F)F.O=C(O)C(F)(F)F | 16 | 16 | 16 | 16 | 4 | 2 | 32 | 64 | 16 | 16 | 16 | 8 | 4 | 0.13 | 16 | 32 | 64 | 4 | 8 | 16 | MIC (Pseudomonas aeruginosa [21]): 0.5 µg/mL; MIC (Pseudomonas aeruginosa [22]): 0.06 µg/mL; MIC (Pseudomonas aeruginosa [23]): 32 µg/mL; MIC (Pseudomonas aeruginosa [24]): 16 µg/mL; MIC (Pseudomonas aeruginosa [25]): 2 µg/mL; MIC (Pseudomonas aeruginosa [26]): 8 µg/mL; MIC (Pseudomonas aeruginosa [27]): 8 µg/mL; MIC (Pseudomonas aeruginosa [28]): 8 µg/mL; MIC (Pseudomonas aeruginosa [29]): 0.5 µg/mL; MIC (Pseudomonas aeruginosa [30]): 128 µg/mL; fold change (FC) (Pseudomonas aeruginosa [31]): 2; fold change (FC) (Pseudomonas aeruginosa [32]): 2
